Data reported in patent publication US20100197668A1, “1,2,3,4-TETRAHYDROPYRROLO[1,2-A]PYRAZINE-6-CARBOXAMIDE AND 2,3,4,5-TETRAHYDROPYRROLO[1,2-a][1,4]-DIAZEPINE-7-CARBOXAMIDE DERIVATIVES, PREPARATION AND THERAPEUTIC USE THEREOF” (SANOFI-AVENTIS, priority 2007, published 2010).
Structures can show the parent of a compound that is named as a salt.

Key:
[1] = molecular target: T1, purified recombinant form of human BACE1 aspartyl protease (Homo sapiens, UniProt P56817); experiment: in vitro inhibition of β-secretase (BACE1) activity, cleavage of fluorogenic peptide substrate FS1 (FRET); type: biochemical; details: recombinant human BACE1 10 nM, substrate FS1 5 μM, sodium acetate buffer pH 4.5, 37° C., 45 minutes; read-out: IC50 (concentration of product giving 50% inhibition of the enzyme activity)
T1 construct: hexahistidine (C); made in house; host or cells: Drosophila cells
Text: The compounds according to the invention have been the subject of pharmacological tests enabling their inhibitory effect with respect to β-secretase activity to be determined.
The tests consisted in measuring the in vitro inhibition of the β-secretase activity by the compounds of the invention.
The β-secretase activity measured corresponds to that of a purified recombinant form of human BACE1 aspartyl protease (the latter comprising a hexahistidine tag at the C-terminal position) produced by expression in Drosophila cells. The purified enzyme is conditioned in TRIS buffer (18 mM) at pH 7.5 containing NaCl (0.45M), MnCl2 (0.9 mM), CaCl2 (0.9 mM), α-D-methylmannoside and 10% glycerol, and stored at −80° C. until use.
The BACE1 activity is measured from the cleavage of a fluorogenic peptide substrate, known as FS1, described originally by Ermolieff et Coll. (2000, Biochemistry, 39, 12450-12456), and based on the principle of fluorescence resonance energy transfer (FRET); the cleavage of the FS1 peptide is measured from the increase of the fluorescent signal emitted by the EDANS (or 5-[(2-aminoethyl)amino]-naphthalene-2-sulfonic acid) group.
The test is carried out in a 96-well microplate in order to determine the inhibition of the enzyme activity by the products of the invention. The substrate FS1 is solubilized to a concentration of 1 mM in 100% dimethylsulfoxide (DMSO) and stored at −20° C. until use. The dilutions of the products to be tested are prepared in DMSO starting from a 10 mM stock solution. The products of the invention, at final concentrations of 0.003 to 10 μM are incubated at 37° C. with the substrate FS1 (final concentration of 5 μM) and the purified enzyme (final concentration of 10 nM) in the sodium acetate buffer (0.1 M), pH 4.5 containing 0.02% of CHAPS detergent and […] for 45 minutes. […] When the incubation is finished, the fluorescence is measured in a spectrofluorimeter, at the excitation wavelength of 355 nm and emission wavelength of 509 nm. For each product concentration tested, the fluorescent signal is compared to the maximum signal obtained when the substrate FS1 is only incubated with the enzyme.
The inhibitory activity of the products of the invention is then evaluated by the measurement of the IC50 (concentration of product giving 50% inhibition of the enzyme activity) using a non-linear regression analysis (computer application software XLfit, IDBS™).

T1 sequence (P56817 46-501): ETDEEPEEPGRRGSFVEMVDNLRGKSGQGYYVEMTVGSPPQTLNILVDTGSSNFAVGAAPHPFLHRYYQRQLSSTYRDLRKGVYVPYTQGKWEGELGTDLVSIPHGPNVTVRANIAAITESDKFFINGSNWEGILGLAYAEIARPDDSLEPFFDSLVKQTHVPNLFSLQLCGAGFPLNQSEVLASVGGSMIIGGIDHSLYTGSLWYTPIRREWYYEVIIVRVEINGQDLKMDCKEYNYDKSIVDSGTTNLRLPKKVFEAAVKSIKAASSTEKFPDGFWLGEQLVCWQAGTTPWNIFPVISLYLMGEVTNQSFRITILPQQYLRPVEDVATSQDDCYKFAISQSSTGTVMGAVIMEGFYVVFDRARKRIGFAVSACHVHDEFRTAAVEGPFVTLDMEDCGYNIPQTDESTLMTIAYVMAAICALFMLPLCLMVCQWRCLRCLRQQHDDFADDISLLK

CCCC(CCC)N1CCn2c(C(=O)N[C@@H](Cc3ccccc3)[C@H](O)CNC3(c4cccc(C(F)(F)F)c4)CC3)ccc2C1=O.Cl
melting point: 176 °C

CCN(CC)C(=O)c1cc(C(=O)N[C@@H](Cc2ccccc2)[C@H](O)CNC2(c3cccc(C(F)(F)F)c3)CC2)n2c1CNCC2 (as salt: HCl) [Compound 5, 6-{(1S,2R)-1-benzyl-2-hydroxy-3-[1-(3-trifluoromethylphenyl)cyclopropylamino]propyl}-N-8,N-8-diethyl-1,2,3,4-tetrahydropyrrolo[1,2-a]pyrazine-6,8-dicarboxamide]
melting point: 143 °C

CCCC(CCC)N1CCn2c(C(=O)N[C@@H](Cc3cc(F)cc(F)c3)[C@H](O)CNC3(c4cccc(C(F)(F)F)c4)CC3)ccc2C1=O.Cl [Compound 7, N-[(1S,2R)-1-(3,5-Difluorobenzyl)-2-hydroxy-3-({1-[3-(trifluoromethyl)-phenyl]cyclopropyl}amino)propyl]-1-oxo-2-(1-propylbutyl)-1,2,3,4-tetrahydropyrrolo[1,2-a]pyrazine-6-carboxamide hydrochloride (1:1)]
IC50 [1]: 480 nM
melting point: 183 °C

CCN(CC)C(=O)c1cc(C(=O)N[C@@H](Cc2ccccc2)[C@H](O)CNC2(c3cccc(C(F)(F)F)c3)CC2)n2c1CNCC2 [Compound 5, 6-{(1S,2R)-1-benzyl-2-hydroxy-3-[1-(3-trifluoromethylphenyl)cyclopropylamino]propyl}-N-8,N-8-diethyl-1,2,3,4-tetrahydropyrrolo[1,2-a]pyrazine-6,8-dicarboxamide]
IC50 [1]: 310 nM

CCCC(CCC)N1CCCn2c(C(=O)N[C@@H](Cc3ccccc3)[C@H](O)CNCc3cccc(C(F)(F)F)c3)ccc2C1=O [Compound 11, N-[(1S,2R)-1-Benzyl-2-hydroxy-3-{[3-(trifluoromethyl)benzyl]amino}propyl]-1-oxo-2-(1-propylbutyl)-2,3,4,5-tetrahydro-1H-pyrrolo[1,2-a][1,4]diazepine-7-carboxamide hydrochloride (1:1)]
IC50 [1]: 1400 nM

CCCC(CCC)N1CCn2c(C(=O)N[C@@H](Cc3ccccc3)[C@H](O)CNCc3cccc(C(F)(F)F)c3)ccc2C1=O.Cl [Compound 9, N-[(1S,2R)-1-Benzyl-2-hydroxy-3-{[3-(trifluoromethyl)benzyl]amino}propyl]-1-oxo-2-(1-propylbutyl)-1,2,3,4-tetrahydropyrrolo[1,2-a]pyrazine-6-carboxamide hydrochloride (1:1)]
IC50 [1]: 370 nM
melting point: 168 °C

CC(C)(C)OC(=O)N1CCn2c(C(=O)N[C@@H](Cc3ccccc3)[C@H](O)CNC3(c4cccc(C(F)(F)F)c4)CC3)cc(C(=O)O)c2C1 [Compound 2, 6-{[(1S,2R)-1-Benzyl-2-hydroxy-3-({1-[3-(trifluoromethyl)phenyl]cyclopropyl}amino)propyl]carbamoyl}-2-(tert-butoxycarbonyl)-1,2,3,4-tetrahydropyrrolo[1,2-a]pyrazine-8-carboxylic acid]
melting point: 134.5 °C

COC(=O)c1cc(C(=O)N[C@@H](Cc2ccccc2)[C@H](O)CNC2(c3cccc(C(F)(F)F)c3)CC2)n2c1CN(C(=O)OC(C)(C)C)CC2 [Compound 1, 2-tert-Butyl 8-methyl 6-{[(1S,2R)-1-benzyl-2-hydroxy-3-({1-[3-(trifluoromethyl)phenyl]cyclopropyl}amino)propyl]carbamoyl}-3,4-dihydropyrrolo[1,2-a]pyrazine-2,8(1H)-dicarboxylate]
melting point: 136 °C
